5 compounds from ChEMBL document CHEMBL1157386, “A C-3 methylated isocembranoid and 10-oxocembranoids from a formosan soft coral, Sinularia grandilobata” (J Nat Prod, 2008) can be followed below.

One assay relates to HepG2. Nature of the assay: Cytotoxicity against human HepG2 cells by MTT assay. It counts as functional, cell-based. (In general: Formazan colour is commonly taken as a measure of viable cells.)
In a further assay the test system is A549. Nature of the assay: Cytotoxicity against human A549 cells by MTT assay. In kind it is functional, cell-based.
For another assay, the system named is MCF7. The assay is described as follows: Cytotoxicity against human MCF7 cells by MTT assay. It counts as functional, cell-based.
The next assay deals with MDA-MB-23. The assay is described as follows: (§1) Cytotoxicity against human […] by MTT assay. In kind it is functional, cell-based.
The subject of assay [1] is RAW264.7. Nature of the assay: Antiinflammatory activity in LPS-stimulated mouse RAW264.7 cells assessed as reduction of COX2 expression by immunoblot analysis relative to control. In kind it is functional, cell-based. For orientation: In western blotting, separated proteins are transferred to a membrane and probed.
Assay [2] has as its system RAW264.7. Nature of the assay: Antiinflammatory activity in LPS-stimulated mouse RAW264.7 cells assessed as reduction of iNOS levels at 50 uM by immunoblot analysis relative to control. In kind it is functional.
The subject of assay [3] is RAW264.7. The assay is described as follows: Induction of COX2 expression in LPS-stimulated mouse RAW264.7 cells at 50 uM by immunoblot analysis relative to control. In kind it is functional.
Assay [4] concerns RAW264.7. The assay is described as follows: Induction of iNOS levels in LPS-stimulated mouse RAW264.7 cells at 50 uM by immunoblot analysis relative to control. It counts as functional.
Assay [5] in a line: as §1. In kind it is functional, cell-based.

Converted amounts (≈) assume the structure as drawn. The source made the active and inactive calls. The calls are words filed in the database; no cut-off is given here.

As for `C/C1=C/C(=O)C[C@@H](C)CC/C(C(C)(C)O)=C\C=C(/C)CCC1`, the outcome in the assay with HepG2, with A549, with MCF7 and in the assay on MDA-MB-23 was inactive.

`C/C1=C\CCC(=O)[C@H](C)/C=C(/C(C)(C)O)CC[C@H](C)CC(=O)C1`: the outcome in the assay on HepG2, with A549, with MCF7 and in the assay on MDA-MB-23 was inactive.

Regarding `CO[C@@]1(C(C)(C)O)/C=C/[C@](C)(O)CC/C=C(\C)CC(=O)C[C@@H](C)CC1` (relative stereo), the result in the assay on HepG2, with A549, in the assay on MCF7 and in the assay with MDA-MB-23 was inactive.

With `C/C1=C\CC[C@]2(C)O[C@H]2/C=C(/C(C)(C)O)CC[C@H](C)CC(=O)C1` (relative stereo) [GRANDILOBATIN B], the result in the assay with RAW264.7 [1], with HepG2, with RAW264.7 [2], with A549, with MCF7 and in the assay with MDA-MB-23 was inactive. The figures for the Activity with RAW264.7 [3] and in the assay with RAW264.7 [4] were 117.3% and 112.4%, respectively.

Regarding `C/C1=C\C=C(\C(C)(C)O)CC[C@H](C)CC(=O)C/C(C)=C/CC1` [GRANDILOBATIN D], the result in the assay with RAW264.7 [1], in the assay on HepG2, with A549 and in the assay on MCF7 was inactive. Besides, the Activity with RAW264.7 [2] is recorded as 28.7%. Further, 15.8 µg/mL (≈ 51.9 µM) corresponded to half-maximal inhibition in [5] (IC50).
